From patent publication US6288265A, “Phloroglucidic acid and derivatives as antibacterial agents” (National Science Council, priority 1999, dated 2001)
Converted amounts (≈) assume the structure as drawn. “Also recorded” adds a separate entry of the source.

Assays:
[1] = tested on: S. aureus FDA 209P; assay: Minimum inhibitory concentration, agar dilution, S. aureus FDA 209P; type: cell-based, Staphylococcus aureus FDA 209P; conditions: Staphylococcus aureus, FDA209P; agar dilution, average of duplicate determinations
Experimental: (§1) Determination of Minimum Inhibitory Concentrations. The screening experiments in vitro were carried out for antibacterial activities of the phloroglucide analogs II-VII, XII-XIV, bifunctional cephalosporins VIII and IX, as well as 7-(phloroglucidamido)cephalosporins X and XI. Cephalosporins XV and XVI were used as the reference compounds. The lowest concentrations of antibiotics needed for prevention of visible growth of microorganisms; reported as the average values of duplicate determinations. Minimum inhibitory concentrations (MIC) values obtained by use of an agar dilution method whereby organisms were deposited onto medicated agar plates by the replication device of Steers et al [Steers, F. et al. Antibiot. Chemother. 1959, 9, 307].

[2] = tested on: PS. aerureus 18S-H; assay: Minimum inhibitory concentration, agar dilution, Ps. 18S-H; type: cell-based, Pseudomonas aeruginosa 18S-H; conditions: Pseudomonas aeruginosa, 18SH, read-out: Minimum Inhibitory Concentration (MIC), PS. aerureus 18S-H
Experimental: as §1

[3] = tested on: pathogenic microorganisms; assay: Antibacterial activity in vitro (statements in words); type: cell-based
Experimental: as §1

[4] = tested on: Ps. aerureus 1101-75; assay: Minimum inhibitory concentration, agar dilution, Ps. 1101-75; type: cell-based, Pseudomonas aeruginosa; conditions: Pseudomonas aeruginosa, 110175; agar dilution, average of duplicate determinations; read-out: Minimum Inhibitory Concentration (MIC), Ps. aerureus 1101-75
Experimental: as §1

[5] = biological target: T1, β-lactamase of S. aureus 95 (Staphylococcus aureus, UniProt P00807); assay: Minimum protective concentration against β-lactamase of S. aureus 95; type: biochemical; conditions: protection of chromogenic cephem indicator from hydrolysis within 40 min, average of duplicates
T1 construct: chromogenic cephalosporin (nitrocefin type) hydrolysis
T1 sequence (P00807 25-281): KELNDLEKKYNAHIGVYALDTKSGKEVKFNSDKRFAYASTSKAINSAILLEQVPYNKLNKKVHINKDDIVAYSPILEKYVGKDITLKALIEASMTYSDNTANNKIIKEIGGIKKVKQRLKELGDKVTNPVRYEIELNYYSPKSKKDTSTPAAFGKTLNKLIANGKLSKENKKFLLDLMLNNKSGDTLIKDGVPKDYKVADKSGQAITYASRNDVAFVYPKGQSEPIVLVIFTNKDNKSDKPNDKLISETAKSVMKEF
Description: (§2) Determination of Minimum Protective Concentrations. The β-lactamase inhibitory properties of cephalosporin-phloroglucide esters VIII and IX as well as 7-(phloroglucidamido)cephalosporins X and XI were studied. Cephalosporins XV and XVI as well as clavulanic acid (XVII) were used in vitro as the reference compound. The average values of duplicate determinations and the ability of compounds to inhibit the hydrolysis of 3-[E-(2,4-dinitro)styryl]-(6R,7R)-7-(2-thienylacetamido)-3-cephem-4-carboxylic acid by β-lactamases from S. aureus 95 and Ps. aeruginosa 18S-H. Minimum protective concentrations (MPC) values were determined by the procedure of O'Callaghan ct al. [O'Callaghan C. H. ct al. Antimicrob. Agents Chemother. 1972, 1, 283] and are the lowest concentrations of β-lactams needed to protect the indicator from hydrolysis by β-lactamases under standard test conditions within 40 min. The hydrolysis of indicator was evidenced by the appearance of a distinct red color.

[6] = tested on: β-lactamases of S. aureus 95 and Ps. aeruginosa 18S-H; assay: Behaviour towards β-lactamases (statements in words); type: biochemical
Description: as §2

[7] = tested on: β-lactamase of PS. aeruginosa 18S-H; assay: Minimum protective concentration against β-lactamase of Ps. aeruginosa 18S-H; type: biochemical; conditions: protection of chromogenic cephem indicator from hydrolysis within 40 min, average of duplicates
Description: as §2

[8] = tested on: S. aureus 95; assay: Minimum inhibitory concentration, agar dilution, S. aureus 95; type: cell-based, Staphylococcus aureus 95; conditions: Staphylococcus aureus, 95; agar dilution, average of duplicates; β-lactamase-producing, methicillin resistant organism; read-out: Minimum Inhibitory Concentration (MIC), S. aureus 95
Experimental: as §1

[9] = tested on: C. albicans; assay: Minimum inhibitory concentration, agar dilution, C. albicans; type: cell-based; conditions: Candida albicans; agar dilution, average of duplicate determinations; read-out: Minimum Inhibitory Concentration (MIC), C. albicans
Experimental: as §1

[10] = Stability in the absence of β-lactamases in phosphate buffer solution; type: physicochemical; conditions: 37° C., pH 6.5

SMILES | MIC [1] | MIC [2] | antibacterial activity in words [3] | MIC [4] | Minimum Protective Concentration (MPC), β-lactamase of S. aureus 95 [5] | hydrolysis by / stability towards β-lactamases, in words [6] | β-lactamase inhibitory property, in words [6] | Minimum Protective Concentration (MPC), β-lactamase of PS. aeruginosa 18S-H [7] | MIC [8] | MIC [9] | β-lactam ring destructed (time) [10]
CC(=O)OCC1=C(C(=O)O)N2C(=O)[C@@H](NC(=O)c3cccc(Cc4cc(Cl)cc(Cc5ccccc5O)c4O)c3O)[C@H]2SC1 [X, 7-{3-[5-Chloro-2-hydroxy-3-(2-hydroxybenzyl)benzyl]-2-hydroxy-benzamido}cephalosporanic Acid] | 0.35 µg/mL (≈ 0.548 µM) | 0.45 µg/mL (≈ 0.704 µM) | notable antibacterial activity; also recorded: potent phloroglucide-like antibacterial activity | 0.28 µg/mL (≈ 0.438 µM) | 95.20 µg/mL | stability towards β-lactamases | did not exhibit notable β-lactamase inhibitory property | 99.78 µg/mL | 0.28 µg/mL (≈ 0.438 µM) | 28.3 µg/mL (≈ 44.3 µM) | –
CC(=O)OCC1=C(C(=O)O)N2C(=O)[C@@H](NC(=O)c3cccc(C(=O)c4cc(Cl)cc(C(=O)c5ccccc5O)c4O)c3O)[C@H]2SC1 [XI, 7-{3-[5-Chloro-2-hydroxy-3-(2-hydroxybenzoyl)benzoyl]-2-hydroxy-benzamido}cephalosporanic Acid] | 0.78 µg/mL (≈ 1.17 µM) | 0.38 µg/mL (≈ 0.57 µM) | notable antibacterial activity | 0.79 µg/mL (≈ 1.18 µM) | 88.68 µg/mL | stability towards β-lactamases | did not exhibit notable β-lactamase inhibitory property | 93.45 µg/mL | 0.45 µg/mL (≈ 0.675 µM) | 14.2 µg/mL (≈ 21.3 µM) | –
O=C(O)[C@H]1/C(=C/CO)O[C@@H]2CC(=O)N21 [XVII, clavulanic acid, reference compound] | – | – | – | – | 0.38 µg/mL | – | – | 3.00 µg/mL | – | – | ≤ 13 h
